Source: PubChem BioAssay AID1918994 (Molecular Pharmacology Branch, DTP, NCI, 2023)
pIC50: −log10 of the molar value. “And” between values parts separate entries of the source, which are not always exact repeats. Equal values may be shown once. Blank lines part the entries; values can stand above or below the compound they belong to.

System: 292921-168-R-J2-PDC complex spheroid growth
Test: Anticancer human tumor 292921-168-R-J2-PDC patient-derived pancreatic carcinoma cell line growth inhibition [AhR]
Conditions: for viability, T/C: stronger effect = lower value
From the text: Multicellular complex tumor spheroid response to aryl hydrocarbon receptor antagonists in combination with a variety of drugs and investigational agents in selected tumor cell lines
The current study was undertaken to assess response to aryl hydrocarbon receptor antagonists in combination with standard-of-care drugs and investigational agents in solid tumor complex spheroid models. Complex spheroids include a stromal component modeled by human endothelial cells (HUVEC) and fibroblasts modeled by human mesenchymal stem cells (MSCs). The concentration ranges selected for each drug and investigational agent were based upon clinically achievable concentrations if the clinical Cmax of the agent was known.
Compounds. The drugs and investigational agents: BAY 2416964 (NSC825713), GNF351 (NSC835774), CH-223191 (NSC835775), CPI-455 (NSC825282), aza-TdCyd (NSC777586), decitabine (NSC127716), belinostat (NSC758774), entinostat (NSC756642), pevonedistat (NSC761192), tazemetostat (NSC777109), talazoparib (NSC765396), olaparib (NSC753686), selinexor (NSC780203), nedisertib (M3814, NSC802822), bortezomib (NSC756655), venetoclax (NSC766270), doxorubicin (NSC123127), elimusertib (BAY189344, NSC800525), ceralasertib (AZD6738, NSC777638), TAK-243 (NSC785004), alisertib (NSC759677), etoposide (NSC141540), topotecan (NSC609699), eribulin (NSC707389), gemcitabine (NSC613327), carboplatin (NSC241240), cisplatin (NSC119875), and SN-38 (NSC673596) were obtained from the National Cancer Institute (NCI) Developmental Therapeutics Program Chemical Repository (32). The FDA-approved anticancer drug set is available from the Developmental Therapeutics Program at https://dtp.cancer.gov/organization/dscb/obtaining/available plates.htm. […] The stock solutions were prepared in dimethyl sulfoxide (DMSO, Sigma-Aldrich, St. Louis, MO, cat. D2650), except for the platinum compounds which were prepared in saline (Quality Biological, Gaithersburg, MD, cat. 114-055-101), at 800-fold the tested concentration and stored at -70 degrees C prior to their use. All drugs and investigational agents were tested over a range starting from a high concentration at or near the clinical Cmax and decreasing in half-log increments. If the clinical Cmax for an agent had not been determined, the highest concentration tested was 10 microM (Table 1).
Cell Culture. All cells were maintained in an incubator at 37 degrees C and 5% CO2 with 95% humidity. The PDC lines were cultured according to standard operating procedures established by the NCI PDMR (https://pdmr.cancer.gov). Briefly, all PDCs were thawed and cultured in Matrigel-coated flasks prepared with a working solution of 1X Ham's F-12 nutrient mix, without supplementation (Invitrogen, Waltham, MA, cat. 11765054), 100 U/mL penicillin-streptomycin (Invitrogen, cat. 15140122), and 2.5% Matrigel (Corning Inc., Corning, NY, cat. 354248) for the first three passages. All PDCs were cultured in complete DMEM/F-12 media containing advanced DMEM/F-12 (Invitrogen, cat. 12634028), 4.9% defined fetal bovine serum, heat inactivated (HyClone Laboratories Inc., Logan, UT, cat. SH30070.03HI), 389 ng/mL hydrocortisone (Sigma-Aldrich, cat. H4001), 9.7 ng/mL human EGF recombinant protein (Invitrogen, cat. PHG0313), 23.4 microg/mL adenine (Sigma-Aldrich, cat. A2786), 97.3 U/mL penicillin-streptomycin (Invitrogen, cat. 15140122), 1.9 mM L-glutamine (Invitrogen, cat. 25030081), and 9.7 microM Y-27632 dihydrochloride (Tocris Bioscience, Bristol, United Kingdom, cat. 1254). The PDCs were cultured in complete DMEM/F12 media without 10 microM Y-27632 dihydrochloride for at least two passages prior to the screen. The established cell lines NCI-H1341 and […] were cultured in DMEM/F-12, HEPES (Invitrogen, cat. 11330032), 5% defined fetal bovine serum (HyClone Laboratories Inc., cat. SH30070.03), ITS premix universal culture supplement [insulin (5 microg/mL), transferrin (5 microg/mL), and selenious acid (5 ng/mL)] […]
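Note: spheroids exposed to compounds for seven days after three days of growth.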

pIC50 (compound alone, run of 05/31/2022): < 5.00
SMILES: CC(CO)NC(=O)c1cc(-c2ccc(Cl)cc2)nn(-c2cnn(C)c2)c1=O (stereo not drawn)
viability, T/C (compound 0.1 µM): 102% [middle of 21 runs]
viability, T/C (compound 0.316 µM): 98.8% [middle of 21 runs]
viability, T/C (compound 1 µM): 99.2% [middle of 20 runs]
viability, T/C (compound 3.16 µM): 88.8% [middle of 19 runs]
viability, T/C (compound 10 µM): 70.5% [middle of 19 runs]

pIC50 (curve of compound): 5.17 and 5.18 and 5.19
SMILES: CC1(C)CCC(CN2CCN(c3ccc(C(=O)NS(=O)(=O)c4ccc(NCC5CCOCC5)c([N+](=O)[O-])c4)c(Oc4cnc5[nH]ccc5c4)c3)CC2)=C(c2ccc(Cl)cc2)C1
viability, T/C (compound 0.0316 µM): 104% and 92.6% and 102%
viability, T/C (compound 0.1 µM): 106% and 105% and 104%
viability, T/C (compound 0.316 µM): 108% and 109% and 97.2%
viability, T/C (compound 1 µM): 106% and 116% and 102%
viability, T/C (compound 3.16 µM): 102% and 109% and 94%
viability, T/C (compound 10 µM): 22.7% and 18.6% and 22.2%

pIC50 (curve of compound): 5.37 and 5.54 and 5.51
SMILES: CC1COCCN1c1cc(C2(S(C)(=N)=O)CC2)nc(-c2ccnc3[nH]ccc23)n1 (stereo not drawn)
viability, T/C (compound 0.0316 µM): 98% and 110% (2×)
viability, T/C (compound 0.1 µM): 93.9% and 96.9% and 110%
viability, T/C (compound 0.316 µM): 89.8% and 90.3% and 106%
viability, T/C (compound 1 µM): 89.2% and 77.6% and 79.8%
viability, T/C (compound 3.16 µM): 58% and 44.7% and 50.7%
viability, T/C (compound 10 µM): 27.7% (2×) and 21.3%

pIC50 (curve of compound): 5.69 and 5.60 and 5.70
SMILES: COc1ccc([C@@H](O)c2cc(-c3ncnc4cc(N5CCOCC5)ccc34)c(F)cc2Cl)nn1
viability, T/C (compound 0.0316 µM): 92.7% and 96.3% and 98.8%
viability, T/C (compound 0.1 µM): 99.2% and 95.5% and 101%
viability, T/C (compound 0.316 µM): 88% and 86.4% and 84.7%
viability, T/C (compound 1 µM): 64.6% and 70.2% and 62.2%
viability, T/C (compound 3.16 µM): 42.2% and 44.8% and 43.1%
viability, T/C (compound 10 µM): 27.6% and 24.4% and 25.5%

pIC50 (compound alone, run of 06/14/2022): < 5.00
SMILES: Cc1ccccc1N=Nc1ccc(NC(=O)c2ccnn2C)c(C)c1
viability, T/C (compound 0.1 µM): 91.3% [middle of 19 runs]
viability, T/C (compound 0.316 µM): 85.6% [middle of 20 runs]
viability, T/C (compound 1 µM): 82.1% [middle of 20 runs]
viability, T/C (compound 10 µM): 62.7% [middle of 21 runs]

pIC50 (curve of compound): 6.65 and 6.76 and 6.66
SMILES: NS(=O)(=O)OCC1CC(n2ccc3c(NC4CCc5ccccc54)ncnc32)CC1O (stereo not drawn)
viability, T/C (compound 0.0316 µM): 126% and 115% and 113%
viability, T/C (compound 0.1 µM): 106% and 81.2% and 99.9%
viability, T/C (compound 0.316 µM): 27.1% and 16.2% and 25.9%
viability, T/C (compound 1 µM): 6.6% and 3.53% and 5.82%
viability, T/C (compound 3.16 µM): 5.73% and 3.02% and 4.02%
viability, T/C (compound 10 µM): 5.17% and 3.01% and 3.79%

The next lines start with the compound.

SMILES: CC(C)c1c(-c2ccccc2)nc2c(C#N)c[nH]n2c1=O
viability, T/C (compound 0.0316 µM): 113% and 103% (2×)
viability, T/C (compound 0.1 µM): 117% and 104% and 107%
viability, T/C (compound 0.316 µM): 105% (2×) and 106%
viability, T/C (compound 1 µM): 115% and 91% and 98.9%
viability, T/C (compound 3.16 µM): 106% and 102% and 99.9%
viability, T/C (compound 10 µM): 95.3% and 96% and 107%
pIC50 (curve of compound): < 5.00

SMILES: COc1cc(Nc2ncc3c(n2)-c2ccc(Cl)cc2C(c2c(F)cccc2OC)=NC3)ccc1C(=O)O
viability, T/C (compound 0.0316 µM): 53.9% and 45.2% and 56.9%
viability, T/C (compound 0.1 µM): 49.2% and 45% and 39.5%
viability, T/C (compound 0.316 µM): 49.9% and 53.6% and 45.8%
viability, T/C (compound 1 µM): 57.9% and 51.2% and 43%
viability, T/C (compound 3.16 µM): 49.8% and 40.5% and 41.5%
viability, T/C (compound 10 µM): 41.7% and 31.2% and 30.7%

SMILES: Cc1cncc(-c2nc(NCCc3c[nH]c4ccccc34)c3ncn(C(C)C)c3n2)c1
viability, T/C (compound 0.1 µM): 90.8% [middle of 20 runs]
viability, T/C (compound 0.316 µM): 89.1% [middle of 20 runs]
viability, T/C (compound 1 µM): 80.5% [middle of 20 runs]
viability, T/C (compound 10 µM): 47.8% [middle of 20 runs]

SMILES: O=C(C=Cc1cccc(S(=O)(=O)Nc2ccccc2)c1)NO
viability, T/C (compound 0.0316 µM): 68.6% and 72.8% and 73.1%
viability, T/C (compound 0.1 µM): 60.2% and 62% and 60%
viability, T/C (compound 0.316 µM): 45.1% and 51.2% and 40.3%
viability, T/C (compound 1 µM): 40.8% and 41.1% and 34.5%
viability, T/C (compound 3.16 µM): 36.6% and 37.4% and 31.4%
viability, T/C (compound 10 µM): 3.45% and 3.29% and 1.56%
pIC50 (curve of compound): 6.37 and 6.26 and 6.60
